{"source": "patent US20230330064A1", "about": "“TYROSINE, TRYPTOPHAN AND PHENYLALANINE AS mTOR AGONISTS MEDIATING PROTEASOME DYNAMICS, COMPOSITIONS, METHODS AND USES THEREOF IN THERAPY, AND PROGNOSTIC METHODS FOR DRUG-RESISTANCE” (Technion Research & Development Foundation Limited, priority 2020, published 2023)", "key": {"[1]": {"system": "26S proteasome", "test": "Proteasome subcellular localization in cultured cells (immunofluorescence, western blot of nuclear fractions)", "assay_type": "cell-based", "settings": "for starvation-induced proteasome translocation from the nucleus to the cytosol: substance added to amino acid starvation medium, 8 h; for proteasome localization without exogenous starvation: non-stressed cells, complete medium", "procedure": "Cells were seeded on glass cover slips for 36 h. Following the indicated treatments, they were fixed with 4% PFA for 15 min, washed with (phosphate-buffered saline) PBS and incubated in PBS containing 10% goat serum for 1h at room temperature, followed by 2 h incubation with the indicated primary antibody. Following extensive wash with PBS, the fixed cells were incubated with the relevant secondary antibody for 1 h, washed and mounted. Images were acquired using Zeiss LSM 700 confocal microscope (Zeiss, Oberkochen, Germany).\nThe proteasome subunits α6, β1, and PSMD1 were visualized via indirect immunofluorescence, using primary and secondary antibodies listed under Key Resources Table. To observe the proteasome in live cells, we expressed the cDNAs of the β4, Rpn2, Rpn6, and Rpn13 proteasome subunits C-terminally fused with GFP. Photoconversion of proteasome-fused Dendra2 was carried out as previously described (McKinney et al., 2009 Nat Methods. 131-133).\nCells were incubated for 20 min in fractionation buffer [20 mM HEPES pH 7.3, 10 mM KCl, 5 mM ATP, 5 mM MgCl2, and protease inhibitor cocktail (Roche)], followed by the addition of NP-40 (to 0.1%). They were then mixed thoroughly and centrifuged at 1,000×g for 5 min. The supernatant was collected as cytosolic fraction, and the pellet (nuclei) was washed twice with PBS. To dissolve the nuclear pellet, fractionation buffer supplemented with 0.5% sodium deoxycholate was added followed by sonication.\nCells were washed twice with ice cold PBS and scraped into lysis buffer (50 mM Tris-HCl, pH 7.4, 130 mM NaCl, 0.5% NP-40) supplemented with freshly added protease inhibitor cocktail, 5 mM ATP, 10 mM iodoacetamide, and 5 mM N-ethyl maleimide. Protein concentration was measured by the BCA assay according to the manufacturer's instructions (Pierce, Rockford, IL). 30 μg of cellular protein were resolved via SDS-PAGE, transferred to a nitrocellulose membrane and immunoblotted with the appropriate antibody."}, "[2]": {"target": "proteasome subunit beta type-5 (PSMB5) (Homo sapiens, UniProt P20618+P28074)", "settings": "cited from earlier work"}, "[3]": {"system": "tumor", "settings": "in vivo; cited from earlier work"}, "[4]": {"target": "L-type amino acid transporter 1 (LAT-1) (Homo sapiens, UniProt Q01650)", "sequence (Q01650 whole entry)": "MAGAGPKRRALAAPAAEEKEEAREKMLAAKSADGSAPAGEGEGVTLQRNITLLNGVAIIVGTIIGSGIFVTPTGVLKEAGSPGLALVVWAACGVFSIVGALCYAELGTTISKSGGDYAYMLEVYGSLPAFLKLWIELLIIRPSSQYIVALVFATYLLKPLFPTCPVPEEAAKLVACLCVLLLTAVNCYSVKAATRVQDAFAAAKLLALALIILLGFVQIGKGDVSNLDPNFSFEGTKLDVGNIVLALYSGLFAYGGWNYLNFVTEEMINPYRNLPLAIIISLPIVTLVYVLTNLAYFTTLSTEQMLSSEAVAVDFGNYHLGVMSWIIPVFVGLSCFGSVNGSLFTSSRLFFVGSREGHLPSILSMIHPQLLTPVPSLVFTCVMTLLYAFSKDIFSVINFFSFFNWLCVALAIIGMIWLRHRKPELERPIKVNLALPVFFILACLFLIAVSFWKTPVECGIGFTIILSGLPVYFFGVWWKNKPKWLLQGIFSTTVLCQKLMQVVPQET", "sequence (P08195 102-630 partner)": "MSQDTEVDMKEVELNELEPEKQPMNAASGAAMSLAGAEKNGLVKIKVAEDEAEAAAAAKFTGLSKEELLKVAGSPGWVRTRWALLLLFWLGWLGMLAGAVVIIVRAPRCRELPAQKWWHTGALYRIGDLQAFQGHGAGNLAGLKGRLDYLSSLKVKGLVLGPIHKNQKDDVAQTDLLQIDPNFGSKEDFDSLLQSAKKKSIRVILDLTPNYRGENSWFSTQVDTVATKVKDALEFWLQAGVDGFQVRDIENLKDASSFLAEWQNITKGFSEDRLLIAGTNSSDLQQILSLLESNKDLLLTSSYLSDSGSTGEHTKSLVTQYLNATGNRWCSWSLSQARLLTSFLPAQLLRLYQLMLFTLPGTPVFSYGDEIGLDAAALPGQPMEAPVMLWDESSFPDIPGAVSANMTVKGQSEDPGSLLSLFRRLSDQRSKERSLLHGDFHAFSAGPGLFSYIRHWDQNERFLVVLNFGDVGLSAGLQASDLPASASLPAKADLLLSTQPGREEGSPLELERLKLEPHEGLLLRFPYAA", "settings": "cited from earlier work"}, "[5]": {"system": "human bladder cancer T24 cell line", "settings": "cited from earlier work"}}}
{"molecule": "N[C@@H](Cc1ccc(O)cc1)C(=O)O", "note": "[Tyr, 4-hydroxyphenylalanine]", "values": [{"measurement": "starvation-induced proteasome translocation from the nucleus to the cytosol", "setting": "[1]", "value": "significant effect"}]}
{"molecule": "CCC(=O)N1CCN(c2ccc(-n3c(=O)ccc4cnc5ccc(-c6cnc7ccccc7c6)cc5c43)cc2C(F)(F)F)CC1", "note": "[Torin1]", "values": [{"measurement": "proteasome localization without exogenous starvation", "setting": "[1]", "value": "induces nuclear export of both 20S and 19S sub-complexes"}]}
{"molecule": "N[C@@H](Cc1c[nH]c2ccccc12)C(=O)O", "note": "[Trp, Tryptophan]", "values": [{"measurement": "starvation-induced proteasome translocation from the nucleus to the cytosol", "setting": "[1]", "value": "significant effect"}]}
{"molecule": "CC(C)C[C@H](NC(=O)CNC(=O)c1cc(Cl)ccc1Cl)B(O)O", "note": "[Ixazomib, N^2-(2,5-Dichlorobenzoyl)-N-[(1R)-1-(dihydroxyboryl)-3-methylbutyl]glycinamide]", "values": [{"measurement": "mode of PSMB5 inhibition", "setting": "[2]", "value": "selectively and reversibly inhibits"}]}
{"molecule": "Ivermectin", "values": [{"measurement": "proteasome localization without exogenous starvation", "setting": "[1]", "value": "cytosolic accumulation"}]}
{"molecule": "Cn1cnc(N)c2ncnc1-2", "note": "[3-MA, 3-methyl adenine]", "values": [{"measurement": "proteasome localization without exogenous starvation", "setting": "[1]", "value": "induced the same effect"}]}
{"molecule": "Tunicamycin", "values": [{"measurement": "proteasome localization without exogenous starvation", "setting": "[1]", "value": "inducing proteasome nuclear export"}]}
{"molecule": "C[C@@H]1C[C@@H]([C@H](O)CC2CC(=O)NC(=O)C2)C(=O)[C@@H](C)C1", "note": "[cycloheximide]", "values": [{"measurement": "reappearance of the proteasome in the nucleus after amino acid replenishment", "setting": "[1]; 8 h starvation, then replenishment in presence of the substance", "value": "does not prevent the reappearance of the proteasome in the nucleus"}]}
{"molecule": "N[C@@H](Cc1cccc(Oc2ccc3ccccc3c2)c1)C(=O)O", "note": "[3-(2-naphthyloxy)-L-phenylalanine]", "values": [{"measurement": "tumor growth", "setting": "[3]", "value": "inhibition of tumor growth"}, {"measurement": "intracellular 14C-Leucine", "setting": "[4]", "value": "reduction"}, {"measurement": "T24 cell line proliferation", "setting": "[5]", "value": "inhibition"}]}
{"molecule": "CC(C)C[C@H](NC(=O)[C@H](CCc1ccccc1)NC(=O)CN1CCOCC1)C(=O)N[C@@H](Cc1ccccc1)C(=O)N[C@@H](CC(C)C)C(=O)[C@@]1(C)CO1", "note": "[carfilzomib, (2S)-4-Methyl-N-[(2S)-1-[[(2S)-4-methyl-1-[(2R)-2-methyloxiran-2-yl]-1-oxopentan-2-yl]amino]-1-oxo-3-phenylpropan-2-yl]-2-[[(2S)-2-[(2-morpholin-4-ylacetyl)amino]-4-phenylbutanoyl]amino]pentanamide]", "values": [{"measurement": "mode of PSMB5 inhibition", "setting": "[2]", "value": "irreversibly"}]}
